Assay [1] concerns the target T1, recombinant N-terminal GST-tagged human Rho kinase 2 (ROCK2, amino acids 1-552) (Homo sapiens, UniProt O75116).
T1 construct: ROCK2, amino acids 1-552; purchased Invitrogen Inc. PV3759
The assay can be described thus: In vitro Rho kinase assay (luciferase-based ATP consumption), ROCK2. Format: biochemical. The procedure, abridged: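 GST-ROCK2 (aa 1-552, 0.82 μg/ml) with 100 μg/ml S6 peptide and 3 µM ATP in Tris pH 7.5 buffer with MgCl2/CaCl2/EGTA/BSA, compound added just after reaction start, 2 h at 30 °C. Remaining ATP read by luciferase luminescence. Efficacy expressed as percentage of H-1152P positive control.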

Assay [2] has as its target T2, recombinant N-terminal GST-tagged human Rho kinase 1 (ROCK1, amino acids 1-535) (Homo sapiens, UniProt Q13464).
T2 construct: ROCK1, amino acids 1-535; purchased Invitrogen Inc. PV-3691
Description: In vitro Rho kinase assay (luciferase-based ATP consumption), ROCK1. It is filed as biochemical. The procedure, abridged:
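GST-ROCK1 (aa 1-535) at 0.82 μg/ml with 100 μg/ml S6 peptide and 3 µM ATP in Tris pH 7.5 buffer with MgCl2, CaCl2, EGTA, BSA; compound added after reaction start, 2 h at 30 °C. Remaining ATP read by luciferase luminescence; efficacy as percent of H-1152P positive control.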

[3] abbreviates: recombinant GST-tagged human ROCK2, luciferase-based ATP consumption, read-out: ROCK2 IC50.
[4] abbreviates: recombinant GST-tagged human ROCK1, luciferase-based ATP consumption, read-out: ROCK1 IC50.

Each structure is given as a SMILES string. Where two headings read alike, the source gives them in different places. Some results are limits rather than exact numbers.

T2 sequence (Q13464 1-535): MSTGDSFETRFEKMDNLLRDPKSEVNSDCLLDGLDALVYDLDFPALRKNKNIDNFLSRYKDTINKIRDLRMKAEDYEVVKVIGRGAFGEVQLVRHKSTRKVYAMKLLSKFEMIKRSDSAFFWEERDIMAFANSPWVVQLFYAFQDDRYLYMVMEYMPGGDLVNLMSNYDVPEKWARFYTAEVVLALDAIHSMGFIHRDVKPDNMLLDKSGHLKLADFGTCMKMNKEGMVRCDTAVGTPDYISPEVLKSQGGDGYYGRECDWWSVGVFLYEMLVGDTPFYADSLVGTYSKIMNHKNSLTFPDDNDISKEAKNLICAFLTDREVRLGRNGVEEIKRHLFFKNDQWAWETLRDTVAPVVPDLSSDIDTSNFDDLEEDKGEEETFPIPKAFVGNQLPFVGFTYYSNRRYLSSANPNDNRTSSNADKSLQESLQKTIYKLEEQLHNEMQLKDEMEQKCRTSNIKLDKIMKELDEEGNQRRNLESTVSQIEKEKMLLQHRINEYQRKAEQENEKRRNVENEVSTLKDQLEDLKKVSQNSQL
T1 sequence (O75116 1-552): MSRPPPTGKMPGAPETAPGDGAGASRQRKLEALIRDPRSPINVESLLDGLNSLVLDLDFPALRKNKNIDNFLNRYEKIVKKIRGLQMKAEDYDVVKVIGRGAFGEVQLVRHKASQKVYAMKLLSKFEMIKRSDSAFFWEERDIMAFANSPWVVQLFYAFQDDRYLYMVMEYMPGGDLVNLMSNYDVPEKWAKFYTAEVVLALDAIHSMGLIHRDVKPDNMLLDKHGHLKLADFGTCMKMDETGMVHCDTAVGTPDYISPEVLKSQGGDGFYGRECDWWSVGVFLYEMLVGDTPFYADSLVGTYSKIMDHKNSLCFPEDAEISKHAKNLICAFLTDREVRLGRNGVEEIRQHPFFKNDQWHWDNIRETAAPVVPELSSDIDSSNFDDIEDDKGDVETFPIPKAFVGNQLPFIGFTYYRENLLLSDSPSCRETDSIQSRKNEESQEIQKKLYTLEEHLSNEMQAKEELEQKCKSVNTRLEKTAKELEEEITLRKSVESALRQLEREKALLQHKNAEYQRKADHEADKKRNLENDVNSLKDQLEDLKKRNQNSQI

`Cc1c(-c2ccnc(N)n2)sc2ccc(CNC(=O)c3ccc(Cl)nc3)cc12` [Example 148, Cc1c(sc2ccc(CNC(═O)c3ccc(Cl)nc3)cc12)-c4ccnc(N)n4]: the results for the IC50 in assay [1] (setting [3]) and in assay [2] (setting [4]) were < 5 µM and > 5 µM, respectively.
For `Cc1c(-c2ccnc(N)n2)sc2ccc(CNC(=O)c3ccncc3)cc12` [Example 110, Cc1c(sc2ccc(CNC(═O)c3ccncc3)cc12)-c4ccnc(N)n4], in that order: < 5 µM and > 5 µM.
Taken in the same sequence, the figures for `Cc1c(-c2ccnc(N)n2)sc2ccc(CNC(=O)c3cccc(Oc4ccccc4)c3)cc12` [Example 282, Cc1c(sc2ccc(CNC(═O)c3cccc(Oc4ccccc4)c3)cc12)-c5ccnc(N)n5] were > 5 µM and > 5 µM.
Taken in the same sequence, the figures for `Cc1ccc(O)c(C(=O)NCc2ccc3sc(-c4ccnc(N)n4)c(C)c3c2)c1` [Example 141, Cc1ccc(O)c(c1)C(═O)NCc2ccc3sc(c(C)c3c2)-c4ccnc(N)n4] were < 5 µM and > 5 µM.
As for `COc1cccc(O)c1C(=O)NCc1ccc2sc(-c3ccnc(N)n3)c(C)c2c1` [Example 181, COc1cccc(O)c1C(═O)NCc2ccc3sc(c(C)c3c2)-c4ccnc(N)n4], the IC50 in assay [1] (setting [3]) and in assay [2] (setting [4]) was < 5 µM throughout.
Consider `CCOC(=O)CC(=O)NCc1ccc2sc(-c3ccnc(N)n3)c(C)c2c1` [Example 117, CCOC(═O)CC(═O)NCc1ccc2sc(c(C)c2c1)-c3ccnc(N)n3], for which the IC50 (commonly the concentration that gives 50% inhibition) in assay [1] (setting [3]) is < 5 µM; in assay [2] (setting [4]) it was > 5 µM.
For `Cc1c(-c2ccnc(N)n2)sc2ccc(CNC(=O)c3cc(F)c(Cl)cc3F)cc12` [Example 253, Cc1c(sc2ccc(CNC(═O)c3cc(F)c(Cl)cc3F)cc12)-c4ccnc(N)n4], in that order: < 5 µM and < 5 µM.
For `Cc1c(-c2ccnc(N)n2)sc2ccc(CNC(=O)c3ccccc3O)cc12` [Example 122, Cc1c(sc2ccc(CNC(═O)c3ccccc3O)cc12)-c4ccnc(N)n4], in that order: < 5 µM and > 5 µM.
Taken in the same sequence, the figures for `Cc1c(-c2ccnc(N)n2)sc2ccc(CNC(=O)C(Cl)(Cl)Cl)cc12` [Example 160, Cc1c(sc2ccc(CNC(═O)C(Cl)(Cl)Cl)cc12)-c3ccnc(N)n3] were < 5 µM and < 5 µM.
As to `Cc1c(-c2ccnc(N)n2)sc2ccc(CNC(=O)c3cc(F)ccc3[N+](=O)[O-])cc12` [Example 230, Cc1c(sc2ccc(CNC(═O)c3cc(F)ccc3[N+]([O−])═O)cc12)-c4ccnc(N)n4], the IC50 in assay [1] (setting [3]) and in assay [2] (setting [4]) was < 5 µM throughout.
In the case of `Cc1c(-c2ccnc(N)n2)sc2ccc(CNC(=O)c3ccc(Oc4cccc(O)c4)cc3)cc12` [Example 306, Cc1c(sc2ccc(CNC(═O)c3ccc(Oc4cccc(O)c4)cc3)cc12)-c5ccnc(N)n5], the IC50 in assay [1] (setting [3]) was < 5 µM; in assay [2] (setting [4]) it was > 5 µM.
Taken in the same sequence, the figures for `Cc1c(-c2ccnc(N)n2)sc2ccc(CNC(=O)c3ccccc3Oc3ccccc3)cc12` [Example 283, Cc1c(sc2ccc(CNC(═O)c3ccccc3Oc4ccccc4)cc12)-c5ccnc(N)n5] were > 5 µM and < 5 µM.
Taken in the same sequence, the figures for `COc1ccc2cc(C(C)C(=O)NCc3ccc4sc(-c5ccnc(N)n5)c(C)c4c3)ccc2c1` (centres unmarked) [Example 307, COc1ccc2cc(ccc2c1)[C](C)C(═O)NCc3ccc4sc(c(C)c4c3)-c5ccnc(N)n5] were > 5 µM and < 5 µM.
Regarding `Cc1c(-c2ccnc(N)n2)sc2ccc(CNC(=O)c3cc(Cl)ccc3[N+](=O)[O-])cc12` [Example 269, Cc1c(sc2ccc(CNC(═O)c3cc(Cl)ccc3[N+]([O−])═O)cc12)-c4ccnc(N)n4], the IC50 in assay [1] (setting [3]) and in assay [2] (setting [4]) was < 5 µM throughout.
`Cc1c(-c2ccnc(N)n2)sc2ccc(CNC(=O)c3ccccc3C(=O)c3ccc(F)cc3)cc12` [Example 317, Cc1c(sc2ccc(CNC(═O)c3ccccc3C(═O)c4ccc(F)cc4)cc12)-c5ccnc(N)n5]: the IC50 in assay [1] (setting [3]) is > 5 µM; in assay [2] (setting [4]), < 5 µM.
For `COc1ccccc1Cc1ccc2sc(-c3ccnc(N)n3)c(C)c2c1` [Example 37, 4-(5-(2-Methoxybenzyl)-3-methylbenzo[b]thiophen-2-yl)pyrimidin-2-amine], in that order: > 5 µM and > 5 µM.
As for `Cc1c(-c2ccnc(N)n2)oc2ccc(Br)cc12` [Example 91, 4-(5-Bromo-3-methylbenzofuran-2-yl)pyrimidin-2-amine], the IC50 in assay [1] (setting [3]) and in assay [2] (setting [4]) was < 5 µM each time.
Turning to `Cc1cccc([N+](=O)[O-])c1C(=O)NCc1ccc2sc(-c3ccnc(N)n3)c(C)c2c1` [Example 215, Cc1cccc(c1C(═O)NCc2ccc3sc(c(C)c3c2)-c4ccnc(N)n4)[N+]([O−])═O], the IC50 is < 5 µM in assay [1] (setting [3]) and > 5 µM in assay [2] (setting [4]).
For `CC(=O)Nc1cccc(C(=O)NCc2ccc3sc(-c4ccnc(N)n4)c(C)c3c2)c1` [Example 206, CC(═O)Nc1cccc(c1)C(═O)NCc2ccc3sc(c(C)c3c2)-c4ccnc(N)n4], in that order: < 5 µM and < 5 µM.
Turning to `Cc1c(-c2ccnc(N)n2)sc2ccc(Sc3cccc(O)c3)cc12` [Example 84, 3-(2-(2-Aminopyrimidin-4-yl)-3-methylbenzo[b]thiophen-5-ylthio)phenol], the IC50 in assay [1] (setting [3]) and in assay [2] (setting [4]) was < 5 µM in each case.
Take `Cc1c(-c2ccnc(N)n2)sc2ccc(Nc3cccc(N)c3)cc12` [Example 57, N^1-(2-(2-Aminopyrimidin-4-yl)-3-methylbenzo[b]thiophen-5-yl)benzene-1,3-diamine]: the IC50 in assay [1] (setting [3]) and in assay [2] (setting [4]) was < 5 µM in each case.
As to `Cc1c(-c2ccnc(N)n2)sc2ccc(CNC(=O)c3cc([N+](=O)[O-])ccc3Cl)cc12` [Example 265, Cc1c(sc2ccc(CNC(═O)c3cc(ccc3Cl)[N+]([O−])═O)cc12)-c4ccnc(N)n4], the IC50 in assay [1] (ROCK2 IC50, recombinant GST-tagged human ROCK2, luciferase-based ATP consumption) is < 5 µM; in assay [2] (ROCK1 IC50, recombinant GST-tagged human ROCK1, luciferase-based ATP consumption), > 5 µM.
For the compound `Cc1c(-c2ccnc(N)n2)sc2ccc(CNC(=O)c3cccc(O)c3O)cc12` [Example 143, Cc1c(sc2ccc(CNC(═O)c3cccc(O)c3O)cc12)-c4ccnc(N)n4], the IC50 in assay [1] (setting [3]) is < 5 µM; in assay [2] (setting [4]) it was > 5 µM.
Taken in the same sequence, the figures for `Cc1c(-c2ccnc(N)n2)sc2ccc(CNC(=O)c3cccc(F)c3)cc12` [Example 124, Cc1c(sc2ccc(CNC(═O)c3cccc(F)c3)cc12)-c4ccnc(N)n4] were < 5 µM and > 5 µM.
Taken in the same sequence, the figures for `Cc1c(-c2ccnc(N)n2)sc2ccc(CNC(=O)c3ccccc3Cc3ccccc3)cc12` [Example 281, Cc1c(sc2ccc(CNC(═O)c3ccccc3Cc4ccccc4)cc12)-c5ccnc(N)n5] were < 5 µM and > 5 µM.
Taken in the same sequence, the figures for `Cc1c(-c2ccnc(N)n2)sc2ccc(CNC(=O)CC3Cc4ccccc4C3)cc12` [Example 198, Cc1c(sc2ccc(CNC(═O)CC3Cc4ccccc4C3)cc12)-c5ccnc(N)n5] were < 5 µM and > 5 µM.
Regarding `CC(=O)Oc1ccccc1C(=O)NCc1ccc2sc(-c3ccnc(N)n3)c(C)c2c1` [Example 211, CC(═O)Oc1ccccc1C(═O)NCc2ccc3sc(c(C)c3c2)-c4ccnc(N)n4], the IC50 in assay [1] (setting [3]) and in assay [2] (setting [4]) was < 5 µM in each case.
Regarding `CC(=O)Oc1ccc(C(=O)NCc2ccc3sc(-c4ccnc(N)n4)c(C)c3c2)cc1` [Example 208, CC(═O)Oc1ccc(cc1)C(═O)NCc2ccc3sc(c(C)c3c2)-c4ccnc(N)n4], the IC50 in assay [1] (setting [3]) and in assay [2] (setting [4]) was < 5 µM throughout.

The values are drawn from US20080021026A1, “BENZOTHIOPHENE INHIBITORS OF RHO KINASE” (priority 2006, published 2008).
